Active and inactive are the calls of the source. No cut-off for these calls is given here.

Series [1] has as its system MCF7. Put plainly: Inhibition of clone formation in human MCF7 cells at 0.75 to 6 uM by crystal voilet staining based analysis. Type of series: functional, cell-based. The conditions noted are these: dose 0.75-6 µM, time 2.0 weeks.
Series [2] can be described thus: Acute toxicity in ICR mouse assessed as liver lesions at 5000 mg/kg, po administered as single dose and measured every 2 days for 14 days by H and E staining based analysis. Type of series: organism-based. Conditions: in vivo, 336 h, time 14 day.
The nature of series [3]: Cmax in Sprague-Dawley rat 10 mg/kg, po by LC/MS/MS analysis. Also on record: dose 10 mg/kg, route po. Conditions: in vivo. It counts as ADME, organism-based.
Series [4] is described as follows: Oral bioavailability in Sprague-Dawley rat 10 mg/kg by LC/MS/MS analysis. Type of series: ADME, organism-based. Conditions: in vivo.
Series [5] deals with MCF7. Put plainly: Induction of cell cycle arrest in human MCF7 cells assessed as accumulation of cells at G1 phase at 6 uM incubated for 24 hrs by propidium iodide staining based flow cytometry analysis (reference value: 57.38%). It counts as functional. On the technique in general: A flow cytometer gives signals particle by particle.
A further series deals with T47D. Put plainly: Antiproliferative activity against human T47D cells assessed as cell growth inhibition incubated for 72 hrs by CCK-8 assay. Type of series: functional. In general terms: Tetrazolium assays rely on reduction of a dye to a coloured formazan, in cell work by metabolically active cells.

For `CCN1CCc2cc(-c3nc(Nc4ccc(N5CCNCC5)cn4)ncc3F)ccc2C1=O`, in the series on MCF7 [1], the inhibition entry was “Active”. Also, the Activity entry in series [2] is “Non-Toxic”; with MCF7 [5], 85.27%. This compound had a Cmax in series [3] of 144 ng/mL. Besides, the bioavailability in series [4] came out at 43%. Moreover, the GI50 in the series on T47D is 887 nM.

What is called Cmax is the highest concentration seen after dosing. The term bioavailability denotes dose-corrected exposure relative to a reference, in per cent. A low value points to little systemic uptake. What is called GI50 is the concentration that inhibits growth by half.

These data come from ChEMBL document CHEMBL5096234, “Discovery, Optimization, and Evaluation of Selective CDK4/6 Inhibitors for the Treatment of Breast Cancer” (J Med Chem, 2022).
